The text below walks through data of patent US4489094A, “Arylalkylaminobenzoic acids” (American Cyanamid Company, priority 1983, dated 1984).

For the assay, the target named is T1, fatty acyl CoA: cholesterol acyl transferase (ACAT) (Rattus norvegicus, UniProt O70536).
T1 construct: Rat adrenals were homogenized; from tissue; host or cells: rat adrenals, 1,000 x g supernatant containing the microsomal fraction
T1 sequence (O70536 1-545): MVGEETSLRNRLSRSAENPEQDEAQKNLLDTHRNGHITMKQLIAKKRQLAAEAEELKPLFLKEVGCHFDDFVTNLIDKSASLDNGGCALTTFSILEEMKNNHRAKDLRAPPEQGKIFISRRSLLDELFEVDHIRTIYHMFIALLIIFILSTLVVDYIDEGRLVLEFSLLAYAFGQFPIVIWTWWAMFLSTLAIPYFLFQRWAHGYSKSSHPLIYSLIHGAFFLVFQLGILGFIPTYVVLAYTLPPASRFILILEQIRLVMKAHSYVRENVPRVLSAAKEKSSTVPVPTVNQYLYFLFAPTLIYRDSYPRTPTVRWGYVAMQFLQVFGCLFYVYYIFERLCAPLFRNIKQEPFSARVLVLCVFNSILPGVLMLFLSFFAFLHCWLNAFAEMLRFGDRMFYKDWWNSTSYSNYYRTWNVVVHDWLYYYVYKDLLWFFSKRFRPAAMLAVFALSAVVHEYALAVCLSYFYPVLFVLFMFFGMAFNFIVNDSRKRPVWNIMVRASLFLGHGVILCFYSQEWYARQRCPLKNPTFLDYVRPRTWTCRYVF
The experiment in a line: Inhibition of enzymatic esterification of cholesterol (ACAT), rat adrenal microsomal supernatant. It counts as biochemical. As to conditions: final concentration of test compound 5.2 μg./ml.; percent inhibition of the ACAT enzyme compared to control values. Here is the method: The compounds of the present invention were tested for their ability to inhibit the enzymatic esterification of cholesterol according to the following procedure:
Rat adrenals were homogenized in 0.2M monobasic potassium phosphate buffer, pH 7.4, and centrifuged at 1,000 times gravity for 15 minutes at 5° C. The supernatant, containing the microsomal fraction, served as the source of the cholesterol-esterifying enzyme, fatty acyl CoA: cholesterol acyl transferase (ACAT). A mixture comprising 50 parts of adrenal supernatant, 10 parts of albumin (BSA) (50 mg./m.), […], 3 parts of test compound, and 500 parts of buffer was pre-incubated at 37° C. for 10 minutes. After treatment with 20 parts of oleoyl CoA (^14 C-0.4 μCi), the mixture was incubated at 37° C. for 10 minutes. A control mixture, omitting the test compound, was prepared and treated in the same manner. The lipids from the incubation mixture were extracted into an organic solvent and separated by thin-layer chromatography. The cholesterol ester fraction was counted in a scintillation counter. This procedure is a modification of that described by Hashimoto, et al. Life Scie., 12 (Part II), 1-12 (1973).
The results of this test on representative compounds of this invention appear in Table I. The final concentration of the test compound was 5.2 μg./ml., and effectiveness of the compound is expressed as percent inhibition of the ACAT enzyme compared to control values.
What is called inhibition is the change of the read-out against control, counted positive when it falls. A lower inhibition goes with little suppression. Compound `CCOC(=O)c1ccc(NCC=C(c2ccc(Cl)cc2)c2ccc(Cl)cc2)cc1` [4-[[3,3-Bis(p-chlorophenyl)allyl]amino]benzoic acid, ethyl ester] came in with an inhibition at 5.2 µg/mL of 81%.

For the compound `O=C(O)c1ccc(NCC(c2ccc(Cl)cc2)c2ccc(Cl)cc2)cc1` [4-[[2,2-Bis(p-chlorophenyl)ethyl]amino]benzoic acid], the inhibition at 5.2 µg/mL turned out to be 19%.

Compound `CCOC(=O)c1ccc(NC(c2ccc(Cl)cc2)c2ccc(Cl)cc2)cc1` [4-[[Bis(p-chlorophenyl)methyl]amino]benzoic acid, ethyl ester] gave an inhibition at 5.2 µg/mL of 55%.

Consider `O=C(O)c1ccc(NCCC(c2ccc(Cl)cc2)c2ccc(Cl)cc2)cc1` [4-[[3,3-Bis(p-chlorophenyl)propyl]amino]benzoic acid], for which the inhibition at 5.2 µg/mL was 21%.

With `O=C(O)c1ccc(N(CCCc2ccc(Cl)cc2)CCCc2ccc(Cl)cc2)cc1` [4-[Bis[3-(p-chlorophenyl)propyl]amino]benzoic acid], the inhibition at 5.2 µg/mL was determined as 33%.

With `CCOC(=O)c1ccc(NCCC(c2ccc(Cl)cc2)c2ccc(Cl)cc2)cc1` [4-[[3,3-Bis(p-chlorophenyl)propyl]amino]benzoic acid, ethyl ester], at 5.2 µg/mL the inhibition was 89%.

The compound `CCOC(=O)c1ccc(N(C)CCCc2ccc(Cl)cc2)cc1` [4-[[3-(p-Chlorophenyl)propyl]methylamino]benzoic acid, ethyl ester] came in with an inhibition at 5.2 µg/mL of 53%.

`CCOC(=O)c1ccc(N(CC)CCCc2ccc(Cl)cc2)cc1` [4-[[3-(p-Chlorophenyl)propyl]ethylamino]benzoic acid, ethyl ester] registered an inhibition at 5.2 µg/mL of 48%.

As for `O=C(O)c1ccc(NCc2ccc(Cl)cc2)cc1` [4-[[(p-chlorophenyl)methyl]amino]benzoic acid], the inhibition at 5.2 µg/mL came out at 6%.

In turn, `CN(CCCc1ccc(Cl)cc1)c1ccc(C(=O)O)cc1` [4-[[3-(p-Chlorophenyl)propyl]methylamino]benzoic acid] returned an inhibition at 5.2 µg/mL of 24%.

Take `O=C(O)c1ccc(NCC=C(c2ccc(Cl)cc2)c2ccc(Cl)cc2)cc1` [4-[[3,3-Bis(p-chlorophenyl)allyl]amino]benzoic acid]: the inhibition at 5.2 µg/mL stood at 46%.

In the case of `CCN(CCCc1ccc(Cl)cc1)c1ccc(C(=O)O)cc1` [4-[[3-(p-Chlorophenyl)propyl]ethylamino]benzoic acid], the inhibition at 5.2 µg/mL is 33%.
